Assay results as given in patent publication US9493446B2, “Orexin receptor antagonists which are [ortho bi-(hetero-)aryl]-[2-(meta bi-(hetero-)aryl)-pyrrolidin-1-yl]-methanone derivatives” (Actelion Pharmaceuticals Ltd, priority 2012, dated 2016).
Where two headings read alike, the source gives them in different places.

Columns and labels:
orexin-1 = orexin-1 (Homo sapiens (Human), UniProt O43613); experiment: Intracellular calcium measurement (FLIPR), CHO cells expressing human orexin-1 receptor, 3 nM orexin-A; format: cell-based; conditions: read-out: IC50 OX1
Sequence of orexin-1 (O43613 whole entry): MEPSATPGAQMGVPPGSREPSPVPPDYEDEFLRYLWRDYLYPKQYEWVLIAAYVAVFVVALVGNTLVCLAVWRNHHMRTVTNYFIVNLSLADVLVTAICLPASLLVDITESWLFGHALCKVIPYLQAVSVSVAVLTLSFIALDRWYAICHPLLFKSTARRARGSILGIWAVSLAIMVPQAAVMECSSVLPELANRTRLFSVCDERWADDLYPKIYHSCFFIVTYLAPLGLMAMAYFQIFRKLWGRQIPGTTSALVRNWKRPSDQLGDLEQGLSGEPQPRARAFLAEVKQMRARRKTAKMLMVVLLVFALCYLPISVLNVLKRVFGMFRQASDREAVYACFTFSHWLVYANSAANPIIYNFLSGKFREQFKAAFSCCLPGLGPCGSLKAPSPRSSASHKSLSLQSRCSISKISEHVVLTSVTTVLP
Procedure, shortened: (§1)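 Antagonist is added 120 min before agonist. Fluo-4 AM-loaded CHO cells carry human orexin-1 or orexin-2 receptor, and calcium is read by FLIPR.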

human orexin-2 receptor = human orexin-2 receptor (Homo sapiens (Human), UniProt O43614); experiment: Intracellular calcium measurement (FLIPR), CHO cells expressing human orexin-2 receptor, 3 nM orexin-A; format: cell-based; conditions: read-out: IC50 OX2
Sequence of human orexin-2 receptor (O43614 whole entry): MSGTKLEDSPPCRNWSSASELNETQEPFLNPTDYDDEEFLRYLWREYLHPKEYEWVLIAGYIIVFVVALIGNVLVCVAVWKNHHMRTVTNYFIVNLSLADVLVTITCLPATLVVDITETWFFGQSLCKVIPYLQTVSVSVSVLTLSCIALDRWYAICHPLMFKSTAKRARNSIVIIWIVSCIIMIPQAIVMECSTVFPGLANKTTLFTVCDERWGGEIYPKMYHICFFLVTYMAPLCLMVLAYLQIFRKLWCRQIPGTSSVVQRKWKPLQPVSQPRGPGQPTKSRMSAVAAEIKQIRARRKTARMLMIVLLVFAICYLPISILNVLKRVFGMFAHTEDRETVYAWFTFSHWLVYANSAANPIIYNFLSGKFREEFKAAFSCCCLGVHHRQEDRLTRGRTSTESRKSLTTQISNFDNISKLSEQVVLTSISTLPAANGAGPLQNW
Procedure, shortened: as §1

[1] = CHO cells expressing human orexin-1 receptor, FLIPR, 3 nM orexin-A, geometric mean if determined several times
[2] = CHO cells expressing human orexin-2 receptor, FLIPR, 3 nM orexin-A, geometric mean if determined several times

## CCOc1ncccc1-c1noc([C@@H]2CCCN2C(=O)c2cc(OC)c(OC)cc2-n2nccn2)n1 [compound 226, (4,5-Dimethoxy-2-[1,2,3]triazol-2-yl-phenyl)-{(S)-2-[3-(2-ethoxy-pyridin-3-yl)-[1,2,4]oxadiazol-5-yl]-pyrrolidin-1-yl}-methanone]
orexin-1; [1]
  IC50: 160 nM
Human orexin-2 receptor; [2]
  IC50: 148 nM

## COc1ccccc1-c1noc([C@@H]2CCCN2C(=O)c2ccccc2-n2nccn2)n1 [compound 227, {(S)-2-[3-(2-Methoxy-phenyl)-[1,2,4]oxadiazol-5-yl]-pyrrolidin-1-yl}-(2-[1,2,3]triazol-2-yl-phenyl)-methanone]
orexin-1; [1]
  IC50: 852 nM
Human orexin-2 receptor; [2]
  IC50: 425 nM

## COc1ccccc1-c1noc([C@@H]2CCCN2C(=O)c2cc(Cl)ccc2-n2nccn2)n1 [compound 228]
orexin-1
  IC50: 272 nM
Human orexin-2 receptor; [2]
  IC50: 134 nM

## COc1ccccc1-c1noc([C@@H]2CCCN2C(=O)c2ccc(C)cc2-n2nccn2)n1 [compound 229, {(S)-2-[3-(2-Methoxy-phenyl)-[1,2,4]oxadiazol-5-yl]-pyrrolidin-1-yl}-(4-methyl-2-[1,2,3]triazol-2-yl-phenyl)-methanone]
orexin-1; [1]
  IC50: 163 nM
Human orexin-2 receptor; [2]
  IC50: 240 nM

## COc1ccccc1-c1noc([C@@H]2CCCN2C(=O)c2cc(C)c(C)cc2-n2nccn2)n1 [compound 230, (4,5-Dimethyl-2-[1,2,3]triazol-2-yl-phenyl)-{(S)-2-[3-(2-methoxy-phenyl)-[1,2,4]oxadiazol-5-yl]-pyrrolidin-1-yl}-methanone]
orexin-1; [1]
  IC50: 23 nM
Human orexin-2 receptor; [2]
  IC50: 15 nM

## COc1cc(C(=O)N2CCC[C@H]2c2nc(-c3ccccc3OC)no2)c(-n2nccn2)cc1C [compound 231, (5-Methoxy-4-methyl-2-[1,2,3]triazol-2-yl-phenyl)-{(S)-2-[3-(2-methoxy-phenyl)-[1,2,4]oxadiazol-5-yl]-pyrrolidin-1-yl}-methanone]
orexin-1; [1]
  IC50: 66 nM
Human orexin-2 receptor; [2]
  IC50: 15 nM

## COc1ccc(-n2nccn2)c(C(=O)N2CCC[C@H]2c2nc(-c3ccccc3OC)no2)c1 [compound 232, {(S)-2-[3-(2-Methoxy-phenyl)-[1,2,4]oxadiazol-5-yl]-pyrrolidin-1-yl}-(5-methoxy-2-[1,2,3]triazol-2-yl-phenyl)-methanone]
orexin-1; [1]
  IC50: 134 nM
Human orexin-2 receptor; [2]
  IC50: 78 nM

## COc1ccccc1-c1noc([C@@H]2CCCN2C(=O)c2cc(F)ccc2-n2nccn2)n1 [compound 233, (5-Fluoro-2-[1,2,3]triazol-2-yl-phenyl)-{(S)-2-[3-(2-methoxy-phenyl)-[1,2,4]oxadiazol-5-yl]-pyrrolidin-1-yl}-methanone]
orexin-1; [1]
  IC50: 1410 nM
Human orexin-2 receptor; [2]
  IC50: 341 nM

## COc1ccccc1-c1noc([C@@H]2CCCN2C(=O)c2nc(C)ccc2-n2nccn2)n1 [compound 235, {(S)-2-[3-(2-Methoxy-phenyl)-[1,2,4]oxadiazol-5-yl]-pyrrolidin-1-yl}-(6-methyl-3-[1,2,3]triazol-2-yl-pyridin-2-yl)-methanone]
orexin-1; [1]
  IC50: 361 nM
Human orexin-2 receptor; [2]
  IC50: 992 nM

## O=C(c1cc(Cl)ccc1-n1nccn1)N1CCC[C@H]1c1nc(-c2ccccc2Cl)no1 [compound 236]
orexin-1; [1]
  IC50: 1850 nM
Human orexin-2 receptor
  IC50: 150 nM

## Cc1ccc(C(=O)N2CCC[C@H]2c2nc(-c3ccccc3Cl)no2)c(-n2nccn2)c1 [compound 237]
orexin-1; [1]
  IC50: 844 nM
Human orexin-2 receptor; [2]
  IC50: 186 nM

## Cc1cc(C(=O)N2CCC[C@H]2c2nc(-c3ccccc3Cl)no2)c(-n2nccn2)cc1C [compound 238]
orexin-1; [1]
  IC50: 104 nM
Human orexin-2 receptor; [2]
  IC50: 16 nM

## COc1cc(C(=O)N2CCC[C@H]2c2nc(-c3ccccc3Cl)no2)c(-n2nccn2)cc1C [compound 239]
orexin-1
  IC50: 378 nM
Human orexin-2 receptor; [2]
  IC50: 24 nM

## COc1ccc(-n2nccn2)c(C(=O)N2CCC[C@H]2c2nc(-c3ccccc3Cl)no2)c1 [compound 240]
orexin-1; [1]
  IC50: 1330 nM
Human orexin-2 receptor; [2]
  IC50: 147 nM

## Cc1ccc(-n2nccn2)c(C(=O)N2CCC[C@H]2c2nc(-c3ccccc3Cl)no2)n1 [compound 242]
orexin-1; [1]
  IC50: 4360 nM
Human orexin-2 receptor; [2]
  IC50: 1440 nM

## O=C(c1ccccc1-n1nccn1)N1CCC[C@H]1c1nc(-c2ccccc2Cl)no1 [compound 243]
orexin-1
  IC50: 2680 nM
Human orexin-2 receptor
  IC50: 312 nM

## Cc1c(F)cccc1-c1noc([C@@H]2CCCN2C(=O)c2ccccc2-n2nccn2)n1 [compound 244, {(S)-2-[3-(3-Fluoro-2-methyl-phenyl)-[1,2,4]oxadiazol-5-yl]-pyrrolidin-1-yl}-(2-[1,2,3]triazol-2-yl-phenyl)-methanone]
orexin-1; [1]
  IC50: 306 nM
Human orexin-2 receptor; [2]
  IC50: 18 nM

## Cc1c(F)cccc1-c1noc([C@@H]2CCCN2C(=O)c2cc(Cl)ccc2-n2nccn2)n1 [compound 245]
orexin-1
  IC50: 262 nM
Human orexin-2 receptor; [2]
  IC50: 21 nM

## Cc1ccc(C(=O)N2CCC[C@H]2c2nc(-c3cccc(F)c3C)no2)c(-n2nccn2)c1 [compound 246, {(S)-2-[3-(3-Fluoro-2-methyl-phenyl)-[1,2,4]oxadiazol-5-yl]-pyrrolidin-1-yl}-(4-methyl-2-[1,2,3]triazol-2-yl-phenyl)-methanone]
orexin-1; [1]
  IC50: 135 nM
Human orexin-2 receptor; [2]
  IC50: 14 nM

## Cc1cc(C(=O)N2CCC[C@H]2c2nc(-c3cccc(F)c3C)no2)c(-n2nccn2)cc1C [compound 247, (4,5-Dimethyl-2-[1,2,3]triazol-2-yl-phenyl)-{(S)-2-[3-(3-fluoro-2-methyl-phenyl)-[1,2,4]oxadiazol-5-yl]-pyrrolidin-1-yl}-methanone]
orexin-1; [1]
  IC50: 17 nM
Human orexin-2 receptor; [2]
  IC50: 3 nM

## COc1ccc(-n2nccn2)c(C(=O)N2CCC[C@H]2c2nc(-c3cccc(F)c3C)no2)c1 [compound 249, {(S)-2-[3-(3-Fluoro-2-methyl-phenyl)-[1,2,4]oxadiazol-5-yl]-pyrrolidin-1-yl}-(5-methoxy-2-[1,2,3]triazol-2-yl-phenyl)-methanone]
orexin-1; [1]
  IC50: 151 nM
Human orexin-2 receptor; [2]
  IC50: 8 nM

## Cc1c(F)cccc1-c1noc([C@@H]2CCCN2C(=O)c2cc(F)ccc2-n2nccn2)n1 [compound 250, {(S)-2-[3-(3-Fluoro-2-methyl-phenyl)-[1,2,4]oxadiazol-5-yl]-pyrrolidin-1-yl}-(5-fluoro-2-[1,2,3]triazol-2-yl-phenyl)-methanone]
orexin-1; [1]
  IC50: 489 nM
Human orexin-2 receptor; [2]
  IC50: 38 nM

## Cc1cccc(C(=O)N2CCC[C@H]2c2nc(-c3cccc(F)c3C)no2)c1-n1nccn1 [compound 251, {(S)-2-[3-(3-Fluoro-2-methyl-phenyl)-[1,2,4]oxadiazol-5-yl]-pyrrolidin-1-yl}-(3-methyl-2-[1,2,3]triazol-2-yl-phenyl)-methanone]
orexin-1; [1]
  IC50: 626 nM
Human orexin-2 receptor; [2]
  IC50: 90 nM

## Cc1c(F)cccc1-c1noc([C@@H]2CCCN2C(=O)c2cccc(F)c2-c2ccn[nH]2)n1 [compound 253, {(S)-2-[3-(3-Fluoro-2-methyl-phenyl)-[1,2,4]oxadiazol-5-yl]-pyrrolidin-1-yl}-[3-fluoro-2-(2H-pyrazol-3-yl)-phenyl]-methanone]
orexin-1; [1]
  IC50: 174 nM
Human orexin-2 receptor; [2]
  IC50: 5 nM

## CCOc1ccccc1-c1noc([C@@H]2CCCN2C(=O)c2cccc(F)c2-c2ccn[nH]2)n1 [compound 254, {(S)-2-[3-(2-Ethoxy-phenyl)-[1,2,4]oxadiazol-5-yl]-pyrrolidin-1-yl}-[3-fluoro-2-(2H-pyrazol-3-yl)-phenyl]-methanone]
orexin-1; [1]
  IC50: 69 nM
Human orexin-2 receptor; [2]
  IC50: 20 nM

## CCOc1ccccc1-c1noc([C@@H]2CCCN2C(=O)c2cc(Cl)ccc2-n2nccn2)n1 [compound 255]
orexin-1; [1]
  IC50: 36 nM
Human orexin-2 receptor; [2]
  IC50: 8 nM

## CCOc1ccccc1-c1noc([C@@H]2CCCN2C(=O)c2ccc(C)cc2-n2nccn2)n1 [compound 256, {(S)-2-[3-(2-Ethoxy-phenyl)-[1,2,4]oxadiazol-5-yl]-pyrrolidin-1-yl}-(4-methyl-2-[1,2,3]triazol-2-yl-phenyl)-methanone]
orexin-1; [1]
  IC50: 43 nM
Human orexin-2 receptor; [2]
  IC50: 20 nM

## CCOc1ccccc1-c1noc([C@@H]2CCCN2C(=O)c2cc(C)c(C)cc2-n2nccn2)n1 [compound 257, (4,5-Dimethyl-2-[1,2,3]triazol-2-yl-phenyl)-{(S)-2-[3-(2-ethoxy-phenyl)-[1,2,4]oxadiazol-5-yl]-pyrrolidin-1-yl}-methanone]
orexin-1; [1]
  IC50: 4 nM
Human orexin-2 receptor; [2]
  IC50: 1 nM

## CCOc1ccccc1-c1noc([C@@H]2CCCN2C(=O)c2cc(OC)c(C)cc2-n2nccn2)n1 [compound 258, {(S)-2-[3-(2-Ethoxy-phenyl)-[1,2,4]oxadiazol-5-yl]-pyrrolidin-1-yl}-(5-methoxy-4-methyl-2-[1,2,3]triazol-2-yl-phenyl)-methanone]
orexin-1; [1]
  IC50: 27 nM
Human orexin-2 receptor; [2]
  IC50: 4 nM

## CCOc1ccccc1-c1noc([C@@H]2CCCN2C(=O)c2nc(C)ccc2-n2nccn2)n1 [compound 259, {(S)-2-[3-(2-Ethoxy-phenyl)-[1,2,4]oxadiazol-5-yl]-pyrrolidin-1-yl}-(6-methyl-3-[1,2,3]triazol-2-yl-pyridin-2-yl)-methanone]
orexin-1; [1]
  IC50: 352 nM
Human orexin-2 receptor; [2]
  IC50: 99 nM

## CCOc1ccccc1-c1noc([C@@H]2CCCN2C(=O)c2ccccc2-n2nccn2)n1 [compound 260, {(S)-2-[3-(2-Ethoxy-phenyl)-[1,2,4]oxadiazol-5-yl]-pyrrolidin-1-yl}-(2-[1,2,3]triazol-2-yl-phenyl)-methanone]
orexin-1; [1]
  IC50: 392 nM
Human orexin-2 receptor; [2]
  IC50: 63 nM

## CCOc1ccccc1-c1noc([C@@H]2CCCN2C(=O)c2cc(OC)ccc2-n2nccn2)n1 [compound 261, {(S)-2-[3-(2-Ethoxy-phenyl)-[1,2,4]oxadiazol-5-yl]-pyrrolidin-1-yl}-(5-methoxy-2-[1,2,3]triazol-2-yl-phenyl)-methanone]
orexin-1; [1]
  IC50: 26 nM
Human orexin-2 receptor; [2]
  IC50: 9 nM

## CCOc1ccccc1-c1noc([C@@H]2CCCN2C(=O)c2cccc(C)c2-n2nccn2)n1 [compound 262, {(S)-2-[3-(2-Ethoxy-phenyl)-[1,2,4]oxadiazol-5-yl]-pyrrolidin-1-yl}-(3-methyl-2-[1,2,3]triazol-2-yl-phenyl)-methanone]
orexin-1; [1]
  IC50: 1110 nM
Human orexin-2 receptor; [2]
  IC50: 145 nM

## CCOc1ccccc1-c1noc([C@@H]2CCCN2C(=O)c2cc(F)ccc2-n2nccn2)n1 [compound 263, {(S)-2-[3-(2-Ethoxy-phenyl)-[1,2,4]oxadiazol-5-yl]-pyrrolidin-1-yl}-(5-fluoro-2-[1,2,3]triazol-2-yl-phenyl)-methanone]
orexin-1; [1]
  IC50: 505 nM
Human orexin-2 receptor; [2]
  IC50: 105 nM
